Reference: US20240000946A1, “CARBONIC ANHYDRASE INHIBITORS SYNTHESIZED ON INTERCONNECTING LINKER CHAINS” (VILNIUS UNIVERSITY, priority 2020, published 2024)

Columns and labels:
human recombinant CA II = target: T1, human recombinant CA II (Homo sapiens, UniProt P00918); assay: Fluorescent thermal shift assay (FTSA), CA II; format: binding; settings: 37° C., pH 7.0
T1 construct: recombinant human carbonic anhydrase catalytic domains using the fluorescent thermal shift assay; made in house
Protocol: (§1) The protein solution in the absence and presence of various compound concentrations was heated from 25 to 99° C. (heating rate 1° C./min). The melting temperature Tm shift was determined by following the fluorescence of 8-anilino-1-naphthalene sulfonate (ANS). The samples consisted of 5 μM protein (except 10 μM for CA IV), different concentrations of compound (usually 0-200 μM), 50 μM ANS and 50 mM sodium phosphate buffer (at pH 7.0) containing 100 mM sodium chloride and 2% (v/v) of DMSO. Compound binding constant was obtained from protein Tm as a function of the added ligand concentration. Data analysis was performed, and the curves were fit so that the binding constant is determined for 37° C.

human recombinant CA IX = target: T2, human recombinant CA IX (Homo sapiens, UniProt Q16790); assay: Fluorescent thermal shift assay (FTSA), CA IX; format: binding; settings: 37° C., pH 7.0
T2 construct: recombinant human carbonic anhydrase catalytic domains using the fluorescent thermal shift assay; made in house
Protocol: as §1

human recombinant CA VI = target: T3, human recombinant CA VI (Homo sapiens, UniProt P23280); assay: Fluorescent thermal shift assay (FTSA), CA VI; format: binding; settings: 37° C., pH 7.0
T3 construct: recombinant human carbonic anhydrase catalytic domains using the fluorescent thermal shift assay; made in house
Protocol: as §1

human recombinant CA VA = target: T4, human recombinant CA VA (Homo sapiens, UniProt P35218); assay: Fluorescent thermal shift assay (FTSA), CA VA; format: binding; settings: 37° C., pH 7.0
T4 construct: recombinant human carbonic anhydrase catalytic domains using the fluorescent thermal shift assay; made in house
Protocol: as §1

human recombinant CA I = target: T5, human recombinant CA I (Homo sapiens, UniProt P00915); assay: Fluorescent thermal shift assay (FTSA), CA I; format: binding; settings: 37° C., pH 7.0
T5 construct: recombinant human carbonic anhydrase catalytic domains using the fluorescent thermal shift assay; made in house
Protocol: as §1

human recombinant CA XII = target: T6, human recombinant CA XII (Homo sapiens, UniProt O43570); assay: Fluorescent thermal shift assay (FTSA), CA XII; format: binding; settings: 37° C., pH 7.0
T6 construct: recombinant human carbonic anhydrase catalytic domains using the fluorescent thermal shift assay; made in house
Protocol: as §1

[1] = target: T7, human recombinant CA XIII (Homo sapiens, UniProt Q8N1Q1); assay: Fluorescent thermal shift assay (FTSA), CA XIII; format: binding; settings: 37° C., pH 7.0
T7 construct: recombinant human carbonic anhydrase catalytic domains using the fluorescent thermal shift assay; made in house
Protocol: as §1

human recombinant CA III = target: T8, human recombinant CA III (Homo sapiens, UniProt P07451); assay: Fluorescent thermal shift assay (FTSA), CA III; format: binding; settings: 37° C., pH 7.0
T8 construct: recombinant human carbonic anhydrase catalytic domains using the fluorescent thermal shift assay; made in house
Protocol: as §1

human recombinant CA VB = target: T9, human recombinant CA VB (Homo sapiens, UniProt Q9Y2D0); assay: Fluorescent thermal shift assay (FTSA), CA VB; format: binding; settings: 37° C., pH 7.0
T9 construct: recombinant human carbonic anhydrase catalytic domains using the fluorescent thermal shift assay; made in house
Protocol: as §1

human recombinant CA XIV = target: T10, human recombinant CA XIV (Homo sapiens, UniProt Q9ULX7); assay: Fluorescent thermal shift assay (FTSA), CA XIV; format: binding; settings: 37° C., pH 7.0
T10 construct: recombinant human carbonic anhydrase catalytic domains using the fluorescent thermal shift assay; made in house
Protocol: as §1

human recombinant CA VII = target: T11, human recombinant CA VII (Homo sapiens, UniProt P43166); assay: Fluorescent thermal shift assay (FTSA), CA VII; format: binding; settings: 37° C., pH 7.0
T11 construct: recombinant human carbonic anhydrase catalytic domains using the fluorescent thermal shift assay; made in house
Protocol: as §1

human recombinant CA IV = target: T12, human recombinant CA IV (Homo sapiens, UniProt P22748); assay: Fluorescent thermal shift assay (FTSA), CA IV; format: binding; settings: 37° C., pH 7.0
T12 construct: recombinant human carbonic anhydrase catalytic domains using the fluorescent thermal shift assay; made in house
Protocol: as §1

carbonic anhydrase IX = target: T13, carbonic anhydrase IX (Homo sapiens, UniProt Q16790); assay: Inhibition of CA enzymatic (CO2 hydratase) activity; format: biochemical
T13 construct: made in house
Protocol: The inhibition of hydratase activity of carbonic anhydrase I, II, and IX was performed using Applied Photophysics SX.18 MV-R instrument at 24° C. Theaturated substrate solution was prepared by bubbling carbon dioxide gas into Milly-Q water for 1 hour at room temperature. Phenol red was used as a pH indicator to follow the absorbance (A-557 nm) while CA acidified the medium. […] Raw curves were fitted using a single exponential model, and the dissociation constants were determined using the Morrison equation: […]
Where [CA] is a total added concentration of active CA, [I]—total added inhibitor concentration, and Kd is inhibitor binding affinity.

HeLa cancer cell culture = assay: Acidification of extracellular medium by hypoxic HeLa cell culture; format: cell-based, human; settings: 1 μM compound
Protocol: FIG. 6. HeLa cancer cell culture grown for 48 hours under hypoxic (1% O2) conditions caused acidification of extracellular medium as visualized by pH drop from initial pH 7.74 (shown as a dashed bold line) to pH 6.35.

T4 sequence (P35218 39-296 limits assumed): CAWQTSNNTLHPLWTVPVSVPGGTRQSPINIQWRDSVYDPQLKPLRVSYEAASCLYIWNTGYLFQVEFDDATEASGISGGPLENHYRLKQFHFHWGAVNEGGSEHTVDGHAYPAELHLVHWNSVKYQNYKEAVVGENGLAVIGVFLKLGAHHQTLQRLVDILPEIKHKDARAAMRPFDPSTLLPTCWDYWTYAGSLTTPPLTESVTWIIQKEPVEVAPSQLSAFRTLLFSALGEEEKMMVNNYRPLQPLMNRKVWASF
T5 sequence (P00915 4-261 limits assumed): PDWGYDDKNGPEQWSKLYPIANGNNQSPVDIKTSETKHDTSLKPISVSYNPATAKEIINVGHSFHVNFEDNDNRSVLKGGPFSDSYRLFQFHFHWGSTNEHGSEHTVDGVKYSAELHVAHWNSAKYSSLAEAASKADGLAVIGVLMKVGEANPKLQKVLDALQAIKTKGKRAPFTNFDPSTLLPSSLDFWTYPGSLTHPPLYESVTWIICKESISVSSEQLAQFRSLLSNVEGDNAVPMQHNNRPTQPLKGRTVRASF
T7 sequence (Q8N1Q1 4-261 limits assumed): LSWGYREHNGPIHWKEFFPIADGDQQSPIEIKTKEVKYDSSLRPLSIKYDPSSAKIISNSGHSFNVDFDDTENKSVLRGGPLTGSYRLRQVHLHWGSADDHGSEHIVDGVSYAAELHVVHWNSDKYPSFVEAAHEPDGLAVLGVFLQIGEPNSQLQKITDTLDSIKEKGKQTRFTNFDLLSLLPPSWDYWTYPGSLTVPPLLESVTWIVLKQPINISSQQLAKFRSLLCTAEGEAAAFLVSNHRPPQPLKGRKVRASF
T11 sequence (P43166 5-262 limits assumed): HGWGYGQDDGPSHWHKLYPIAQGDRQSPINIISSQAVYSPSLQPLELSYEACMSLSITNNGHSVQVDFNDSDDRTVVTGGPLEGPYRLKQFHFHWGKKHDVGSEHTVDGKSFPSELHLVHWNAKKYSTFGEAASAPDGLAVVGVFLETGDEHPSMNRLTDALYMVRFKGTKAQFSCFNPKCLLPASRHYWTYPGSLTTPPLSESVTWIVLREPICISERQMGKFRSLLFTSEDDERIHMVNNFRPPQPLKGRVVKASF
T12 sequence (P22748 21-285 limits assumed): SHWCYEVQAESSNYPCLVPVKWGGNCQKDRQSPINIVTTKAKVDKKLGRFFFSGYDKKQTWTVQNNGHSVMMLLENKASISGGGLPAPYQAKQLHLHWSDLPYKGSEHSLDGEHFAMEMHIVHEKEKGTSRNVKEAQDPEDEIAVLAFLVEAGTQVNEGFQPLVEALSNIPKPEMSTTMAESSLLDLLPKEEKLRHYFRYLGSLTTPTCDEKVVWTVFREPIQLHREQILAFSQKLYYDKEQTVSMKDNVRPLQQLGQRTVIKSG
T9 sequence (Q9Y2D0 37-296 limits assumed): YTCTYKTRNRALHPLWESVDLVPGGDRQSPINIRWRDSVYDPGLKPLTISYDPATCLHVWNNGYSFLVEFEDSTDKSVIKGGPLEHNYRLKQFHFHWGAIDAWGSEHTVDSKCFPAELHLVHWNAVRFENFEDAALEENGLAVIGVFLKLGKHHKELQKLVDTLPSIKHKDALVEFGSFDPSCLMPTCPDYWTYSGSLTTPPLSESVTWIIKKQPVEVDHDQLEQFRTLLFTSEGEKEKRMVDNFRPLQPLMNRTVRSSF
T8 sequence (P07451 3-259 limits assumed): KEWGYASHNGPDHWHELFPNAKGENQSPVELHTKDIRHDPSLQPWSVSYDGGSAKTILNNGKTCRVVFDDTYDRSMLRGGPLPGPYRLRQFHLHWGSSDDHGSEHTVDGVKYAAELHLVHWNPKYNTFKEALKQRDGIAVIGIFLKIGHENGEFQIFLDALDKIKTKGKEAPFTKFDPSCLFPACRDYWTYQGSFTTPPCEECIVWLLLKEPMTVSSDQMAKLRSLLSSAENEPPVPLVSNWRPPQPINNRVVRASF
T10 sequence (Q9ULX7 20-278 limits assumed): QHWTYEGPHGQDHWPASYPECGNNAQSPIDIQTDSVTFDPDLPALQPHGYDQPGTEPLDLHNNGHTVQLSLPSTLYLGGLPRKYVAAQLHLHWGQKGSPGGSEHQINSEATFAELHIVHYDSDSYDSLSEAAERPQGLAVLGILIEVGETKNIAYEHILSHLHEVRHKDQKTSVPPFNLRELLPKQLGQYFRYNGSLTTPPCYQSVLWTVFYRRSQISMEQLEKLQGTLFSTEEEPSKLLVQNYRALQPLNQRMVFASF
T6 sequence (O43570 30-289 limits assumed): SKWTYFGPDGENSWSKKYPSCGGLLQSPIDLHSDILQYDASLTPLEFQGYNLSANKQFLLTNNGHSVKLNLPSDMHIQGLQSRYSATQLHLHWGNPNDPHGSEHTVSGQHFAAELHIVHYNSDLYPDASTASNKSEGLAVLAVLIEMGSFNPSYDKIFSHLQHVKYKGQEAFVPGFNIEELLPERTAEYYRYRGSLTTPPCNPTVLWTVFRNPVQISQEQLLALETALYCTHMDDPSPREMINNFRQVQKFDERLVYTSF
T3 sequence (P23280 21-278 limits assumed): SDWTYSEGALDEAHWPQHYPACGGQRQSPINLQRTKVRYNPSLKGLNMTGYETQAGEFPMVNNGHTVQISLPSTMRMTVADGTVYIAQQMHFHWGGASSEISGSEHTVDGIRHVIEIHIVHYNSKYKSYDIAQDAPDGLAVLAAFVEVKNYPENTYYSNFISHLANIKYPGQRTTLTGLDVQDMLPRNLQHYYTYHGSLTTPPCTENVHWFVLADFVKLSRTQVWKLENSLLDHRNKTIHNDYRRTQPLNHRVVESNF

Row | Kd (human recombinant CA II) | Kd (human recombinant CA IX) | Kd (human recombinant CA VI) | Kd (human recombinant CA VA) | Kd (human recombinant CA I) | Kd (human recombinant CA XII) | Kd [1] | Kd (human recombinant CA III) | Kd (human recombinant CA VB) | Kd (human recombinant CA XIV) | Kd (human recombinant CA VII) | Kd (human recombinant CA IV) | IC50 (carbonic anhydrase IX; 50 nM enzyme CA IX, compound titrates the enzyme, read-out: Compound concentration at 50% remaining activity of CA IX) | Kd (carbonic anhydrase IX; read-out: Real affinity for CA IX as bounded by enzymatic inhibition) | SMILES | Inhibition of acidification at 1 μM (HeLa cancer cell culture)
1 | 450 nM | 0.1 nM | 980 nM | 7.1 µM | 10 µM | 50 nM | 50 nM | ≥ 200 µM | 83 nM | 27 nM | 150 nM | 1000 nM | – | – | NS(=O)(=O)c1c(F)c(F)c(S(=O)(=O)CCNC(=O)CCOCCOCCOCCOCCOCCOCCOCCOCCOCCOCCOCCOCCNC(=O)CCCCC2SCC3NC(=O)NC32)c(NC2CCCCCCC2)c1F (centres unmarked) [AZ19-1, N-[2-[2-[2-[2-[2-[2-[2-[2-[2-[2-[2-[2-[3-[2-[2-(cyclooctylamino)-3,5,6-trifluoro-4-sulfamoyl-phenyl]sulfonylmethylamine]-3-oxo-propoxy]ethoxy]ethoxy]ethoxy]ethoxy]ethoxy]ethoxy]ethoxy]ethoxy]ethoxy]ethoxy]ethoxy]ethyl]-5-(2-oxo-1,3,3a,4,6,6a-hexahydrothieno[3,4-d]imidazol-4-yl)pentanamide] | –
2 | 250 nM | 0.05 nM | 500 nM | 10 µM | 10 µM | 20 nM | 20 nM | ≥ 200 µM | 70 nM | 10 nM | 50 nM | 1000 nM | – | – | NS(=O)(=O)c1c(F)c(F)c(S(=O)(=O)CCNC(=O)CCOCCOCCOCCOCCOCCOCCOCCOCCOCCOCCOCCOCCOCCC(=O)O)c(NC2CCCCCCC2)c1F [AZ19-3-1, 3-[2-[2-[2-[2-[2-[2-[2-[2-[2-[2-[2-[2-[3-[2-[2-(cyclooctylamino)-3,5,6-trifluoro-4-sulfamoyl-phenyl]sulfonylethylamino]-3-oxo-propoxy]ethoxy]ethoxy]ethoxy]ethoxy]ethoxy]ethoxy]ethoxy]ethoxy]ethoxy]ethoxy]ethoxy]ethoxy]propanoic acid] | –
3 | 100 nM | 0.015 nM | – | 3 µM | 3.3 µM | 20 nM | 2 nM | ≥ 200 µM | 70 nM | 8.3 nM | 330 nM | 250 nM | ~10 nM | < 10 nM | NS(=O)(=O)c1c(F)c(F)c(S(=O)(=O)CCNC(=O)CCOCCOCCOCCOCCOCCOCCOCCOCCOCCOCCOCCOCCOCCC(=O)NCCS(=O)(=O)c2c(F)c(F)c(S(N)(=O)=O)c(F)c2NC2CCCCCCC2)c(NC2CCCCCCC2)c1F [AZ19-3-2, N-[2-[2-(cyclooctylamino)-3,5,6-trifluoro-4-sulfamoyl-phenyl]sulfonylethyl]-3-[2-[2-[2-[2-[2-[2-[2-[2-[2-[2-[2-[2-[3-[2-[2-(cyclooctylamino)-3,5,6-trifluoro-4-sulfamoyl-phenyl]sulfonylethylamino]-3-oxo-propoxy]ethoxy]ethoxy]ethoxy]ethoxy]ethoxy]ethoxy]ethoxy]ethoxy]ethoxy]ethoxy]ethoxy]ethoxy]propanamide] | mostly inhibited
